Patent US20240360145A1, “PYRIMIDINE-2,4-DIAMINE DERIVATIVES AS WELL AS PREPARATION METHOD THEREFOR AND USE THEREOF” (LISEN THERAPEUTICS, INC., priority 2022, published 2024)

Tests used:
ASH-3 (thyroid cancer) = experiment: Cell viability IC50 (CellTiter-Glo), ASH-3; type: cell-based; details: ASH-3, 72 hours
Experimental: (§1) The cancer cell lines were cultured to the logarithmic growth phase according to conventional culture methods, and the cells were inoculated into a 384-well plate at a density of 2,000 cells/well in a volume of 40 μl/well. The concentrations of added compounds were: […], 1.67 μM, 0.56 μM, 0.19 μM, 0.062 μM, 0.021 μM, 0.0069 μM, 0.0023 μM, 0.00076 μM, and 0 μM. After 72 hours, cell viability was detected using the CellTiter-Glo™ Detection Kit.

NCI-H1650 cells = experiment: Cell viability IC50 (MTT), Gefitinib- and Osimertinib-resistant NCI-H1650 cells; details: Homo sapiens, NCI-H1650, 72 h, read-out: cell viability IC50
Experimental: (§2) (1) The cells were cultured to the logarithmic growth phase. […] After centrifugation at room temperature, the supernatant was discarded, and the cell precipitate was resuspended with fresh complete medium. After counting, the cells were placed at room temperature for later use.
(§3) (2) The cells were inoculated into a 96-well plate at a density of 4,000 cells/well with a volume of 100 μl/well. The wells at the outermost circle of the plate were not inoculated with cells, and instead, added with sterile water to reduce evaporation of the culture medium.
(§4) (3) After overnight culture of the cells, the medium was discarded, and a fresh medium containing different concentrations of compounds was added at 200 μl/well. The dilution method of the compound was as follows: first the compound with the highest concentration of 10 μM was prepared, and then the compound was diluted for 3 times in sequence. […] At the same time, a blank control group was set up, in which only an equal volume of culture medium was added without adding cells. Six replicate wells were set up for each group. The cells were placed in the incubator for further culture.
(§5) (4) After 72 hours, 20 μl of MTT solution (5 mg/ml) sterilized by filtration through a 0.22 m filter membrane was added to each well, and the cells were cultured in an incubator at 37° C. for another 4 hours.
(§6) (6) IC50 of the compounds for different cells was calculated based on the light absorption value of each group. Specifically, the absorbance value under treatment with different concentrations of compounds was first subtracted from the absorbance value of the blank well, and then the absorbance value of the 0 μM group was taken as 100% to calculate the cell survival rate after treatment with different concentrations of compounds. That is, survival rate=((ODexperimental well−ODblank control)/(ODnegative control−ODblank control))×100%. IC50 values were calculated based on the survival rate and concentration of the compound.

MCF-7 (breast cancer) = experiment: Cell viability IC50 (CellTiter-Glo), MCF-7; type: cell-based; details: Homo sapiens, MCF7, MCF-7, 72 hours
Experimental: as §1

NCI-H1975 cells = experiment: Cell viability IC50 (MTT), Gefitinib-resistant NCI-H1975 cells; details: Homo sapiens, NCI-H1975, 72 h, read-out: cell viability IC50
Experimental: as §2, §3, §4, §5, §6

PE043 primary cells = experiment: Cell viability IC50 (CCK-8), primary cells PE043 from lung adenocarcinoma pleural effusion resistant to EGFR-TKI; details: read-out: cell viability IC50
Experimental: (1) The pleural effusion was poured into a 15 mL or 50 mL of sterilized centrifuge tube for centrifugation. Centrifugation conditions: 800 to 1000 rpm, 5 min.
(2) The precipitate was resuspended and washed for 2 to 3 times with PBS.
(3) The cell precipitate was resuspended with complete culture medium (α-MEM medium containing 10% fetal bovine serum and 2% penicillin-streptomycin), and the flocculent matter in the pleural effusion was removed using a sterilized cell sieve.
(4) The red blood cells in the pleural effusion were removed with lymphocyte separation fluid, and the tumor cells and lymphocyte components were collected. The number of tumor cells was observed under a microscope, and the cells were inoculated.
(5) After 24 hours, the supernatant was discarded, and fresh culture medium was added for further culture.
(6) The cell growth status was observed, and it was determined based on the cell status whether the medium was required to be continuously changed to remove blood cells. When the cells grew to a density of 80% to 90%, the cells were preserved.
(1) Primary cells from lung cancer pleural effusion within 5 generations were cultured to the logarithmic growth phase. […] After centrifugation at room temperature, the supernatant was discarded, and the cell precipitate was resuspended with fresh complete culture medium. After counting, the cells were placed at room temperature for later use. The cells were inoculated into a 384-well plate at a density of 2000 cells/well with a volume of 40 μl/well. The wells at the outermost circle of the plate were not inoculated with cells, and instead, added with sterile water to reduce evaporation of the culture medium.
(2) After overnight culture of the cells, the medium was discarded, and a fresh medium containing different concentrations of compounds was added at 200 μl/well. The dilution method of the compound was as follows: first the compound with the highest concentration of 10 μM was prepared, and then the compound was diluted for 3 times in sequence. […] At the same time, a blank control group was set up, in which only an equal volume of culture medium was added without adding cells. Five replicate wells were set up for each group. The cells were placed in the incubator for further culture.
(3) After 72 hours, 8 μl of CCK-8 solution, which was double-diluted with 10 mM PBS, was added to each well, and the cells were shaken and placed in an incubator at 37° C. for further culture for 2 hours.
(4) The light absorbance value at 450 nm was read using a microplate reader, and the IC50 was calculated according to the absorbance value.

HT29 (colon cancer) = experiment: Cell viability IC50 (CellTiter-Glo), HT29; type: cell-based; details: Homo sapiens, HT-29, HT29, 72 hours
Experimental: as §1

OV-90 (ovarian cancer) = experiment: Cell viability IC50 (CellTiter-Glo), OV-90; type: cell-based; details: Homo sapiens, OV-90, 72 hours
Experimental: as §1

AGS (gastric cancer) = experiment: Cell viability IC50 (CellTiter-Glo), AGS; type: cell-based; details: 72 hours
Experimental: as §1

NCI-H1792 cells = experiment: Cell viability IC50 (MTT), AMG510-resistant NCI-H1792 cells; type: cell-based; details: Homo sapiens, NCI-H1792 cells (KRAS G12C)
Experimental: Non-small cell lung cancer cell lines NCI-H1975, NCI-H1650, and NCI-H1792 were cultured in RPMI-1640 medium containing 10% fetal bovine serum and 1% penicillin-streptomycin. 1% sodium pyruvate was additionally added when culturing NCI-H1975 cells. All the cells were cultured in a constant temperature incubator containing 5% CO2 at 37° C.
(1) The cells were cultured to the logarithmic growth phase. When the confluence reached about 90%, the cells were digested with 0.25% trypsin, and complete medium was added to collect the cells. After centrifugation at room temperature, the supernatant was discarded, and the cell precipitate was resuspended with fresh complete medium. […]
(5) The medium was carefully aspirated off, 100 μl of DMSO was added to dissolve the precipitate formed by the reaction with MTT, shaking and mixing to mix the blue-violet crystals well, and the light absorbance value at 492 nm was read with a microplate reader.
(6) IC50 of the compounds for different cells was calculated based on the light absorption value of each group. Specifically, the absorbance value under treatment with different concentrations of compounds was first subtracted from the absorbance value of the blank well, and then the absorbance value of the 0 μM group was taken as 100% to calculate the cell survival rate after treatment with different concentrations of compounds. […]

[1] = tested on: various cancer cell lines; experiment: Cell viability IC50 (CellTiter-Glo), summary over various cancer cell lines; type: cell-based
Experimental: as §1

[2] = tested on: MDA-MB-231 (breast cancer); experiment: Cell viability IC50 (CellTiter-Glo), MDA-MB-231; type: cell-based; details: Homo sapiens, MDA-MB-231, 72 hours
Experimental: as §1

`CN1CC2CCC(C1)N2Cc1ccc(Nc2ncc(Cl)c(Nc3ccccc3S(=O)(=O)N(C)C)n2)cc1` [Compound 8, 2-((5-chloro-2-((4-((3-methyl-3,8-diazabicyclo[3.2.1]octan-8-yl)methyl)phenyl)amino)pyrimidin-4-yl)amino)-N,N-dimethylbenzenesulfonamide] gave an IC50 (ASH-3 (thyroid cancer)) of 44 nM, an IC50 (NCI-H1650 cells) of 83.6 nM and an IC50 (MCF-7 (breast cancer)) of 52.8 nM. The IC50 (NCI-H1975 cells) was 55.2 nM, the IC50 (PE043 primary cells) was 34.6 nM and the IC50 (HT29 (colon cancer)) was 190 nM. It also gave an IC50 (OV-90 (ovarian cancer)) of 103 nM, an IC50 (AGS (gastric cancer)) of 36.2 nM and an IC50 (NCI-H1792 cells) of 40.6 nM. It also gave an IC50 ([1]; colon cancer, liver cancer, cervical cancer, ovarian cancer, and esophageal cancer) of under 200 nM, an IC50 ([1]; thyroid cancer, breast cancer, bladder cancer, glioma, pancreatic cancer, melanoma, and gastric cancer) of under 100 nM and an IC50 [2] of 49.9 nM.
